From US20210238225A1, “PEPTIDOMIMETIC INHIBITORS OF THE PEPTIDYL-PROLYL CIS/TRANS ISOMERASE (PIN1)” (DANA-FARBER CANCER INSTITUTE, INC., priority 2018, published 2021)
Entries after “also recorded” stand apart in the source; their conditions may differ. Read-outs that look alike come from different tables or passages of the source. Non-standard residues stand in square brackets, D forms with d. Residues, ends and D or L forms follow the SMILES beside them. *: point of attachment. Biotinyl(3aR,4R,6aS) = O=C1N[C@@H]2[C@@H](CS[C@@H]2CCCCC(=O)*)N1; Phe(4-F) = N[C@@H](Cc1ccc(F)cc1)C(=O)O; X2 = C[C@H]1NC(=O)N[C@H]1CCCCCC(=O)*; NH(4-Me-benzyl) = Cc1ccc(CN*)cc1; NMeF = CN[C@@H](Cc1ccccc1)C(=O)O; hPhe = N[C@@H](CCc1ccccc1)C(=O)O; Cit = NC(=O)NCCC[C@H](N)C(=O)O; Pip = O=C(O)[C@@H]1CCCCN1; Piperidide = C1CCN(*)CC1; Fluoroacetyl = O=C(CF)*; X3 = C=CS(=O)(=O)*; ClAc = O=C(CCl)*; X1 = O=C(C1CO1)*

Assays:
Pin1 (GST-Pin1) = Pin1 (GST-Pin1) (Homo sapiens, UniProt Q13526); assay: Fluorescence polarization (FP) assay, binding to Pin1
Pin1 = Pin1 (Homo sapiens, UniProt Q13526); assay: Lysate target engagement (pull down with biotinylated probes; competition assay); type: binding; design: endogenous in cells; host or cells: MDA-MB-231; conditions: for Lysate Target Engagement?: TNBC-MDA-MB-231 lysate, biotin/dtb probes: pull down, others: competition, concentration under E5; for Lysate Target Engagement? concentration stated for the engagement or pull down: read with the E4 line of the same compound (complete, partial, probe pull down); for pull down of Pin1 from lysate (FIG. 5A): 1 μM
Procedure: (§1) TNBC-MDA-MB-231 cells were lysed in lysis buffer (50 mM Hepes pH 7.5, 150 mM NaCl, 1 mM ethylenediaminetetraacetic acid (EDTA), 10% v/v glycerol, 0.5% v/v NP-40, protease inhibitors (Roche)). After clarifying by centrifugation (14,000 rpm for 15 min at 4° C.), lysates were incubated with the indicated concentrations of candidate compound for 1 hour at 4° C. (500 μg of protein per sample, as determined by BCA). Lysates were then incubated with streptavidin agarose resin (30 μL of 1:1 beads: lysis buffer slurry) (Thermo Scientific™, cat. #20349) for 2 hours at 4° C. Beads were washed 4 times with 500 μL of washing buffer (50 mM Hepes, pH 7.5, 10 mM NaCl, 1 mM EDTA, 10% glycerol), then pelleted by centrifugation and dried. The beads were then boiled at 95° C. for 5 minutes in 30 μL of 2× LDS+10% β-mercaptoethanol. Lysates were probed for specified proteins by western blotting using the Bolt system (Life Technologies™).
as §1, with “mM EDTA,” for “mM ethylenediaminetetraacetic acid (EDTA),”, “by centrifugation,” for “by centrifugation (14,000 rpm for 15 min at 4° C.),”, “were pre-incubated” for “were incubated”, “of” for “of candidate”, “compound 18 overnight” for “compound for 1 hour”, “BCA). The lysates were then incubated with 1 μM of compound 2c (desthiobiotin probe) for 1 hour at 4° C.” for “BCA).”

[1] = competition with fluorescein-labeled peptide probe, 12 hours pre-incubation at 4° C., Kenakin Ki equation, read-out: Ki, μM (FP Assay)
[2] = Ki quoted in figure legend, assay not named
[3] = Ki, μM (FP Assay), competition with fluorescein-labeled peptide probe, 12 hours pre-incubation at 4° C., Kenakin Ki equation

Pin1, sequence (Q13526 whole entry): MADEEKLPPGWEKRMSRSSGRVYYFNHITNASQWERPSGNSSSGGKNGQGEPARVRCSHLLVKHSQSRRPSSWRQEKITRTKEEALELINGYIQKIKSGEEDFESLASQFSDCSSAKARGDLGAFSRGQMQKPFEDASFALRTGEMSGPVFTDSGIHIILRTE
Pin1 (GST-Pin1), sequence (Q13526 whole entry): as above

Row | Compound | Ki (Pin1 (GST-Pin1); [1]) [µM] | Lysate Target Engagement? (Pin1) | Lysate Target Engagement? concentration stated for the engagement or pull down (Pin1) | further results
1 | COC(=O)CC[C@H](NC(=O)CCl)C(=O)N1CCCC[C@H]1C(=O)N[C@@H](Cc1c[nH]c2ccccc12)C(=O)N[C@@H](Cc1ccc(O)cc1)C(N)=O [Compound 2-22, Methyl (S)-5-((S)-2-(((S)-1-(((S)-1-Amino-3-(4-hydroxyphenyl)-1-oxopropan-2-yl)amino)-3-(1H-indol-3-yl)-1-oxopropan-2-yl)carbamoyl)piperidin-1-yl)-4-(2-chloroacetamido)-5-oxopentanoate] (ClAc-E(OMe)[Pip]WY-NH2) | 0.154 | Yes-partial | at 10 μM | –
2 | C[C@H](NC(=O)[C@H](C)NC(=O)[C@H](CCCNC(N)=O)NC(=O)[C@H](Cc1c[nH]c2ccccc12)NC(=O)[C@@H]1CCCCN1C(=O)[C@H](CCC(=O)O)NC(=O)CCl)C(=O)N[C@@H](CCCCNC(=O)CCCC[C@H]1SC[C@H]2NC(=O)N[C@H]21)C(N)=O [Compound 2-25, (S)-5-((S)-2-(((2S,5S,8S,11S)-14-Carbamoyl-1-(1H-indol-3-yl)-8,11-dimethyl-3,6,9,12,20-pentaoxo-24-((3aR,4R,6aS)-2-oxohexahydro-1H-thieno[3,4-d]imidazol-4-yl)-5-(3-ureidopropyl)-4,7,10,13,19-pentaazatetracosan-2-yl)carbamoyl)piperidin-1-yl)-4-(2-chloroacetamido)-5-oxopentanoic acid] (ClAc-E[Pip]W[Cit]AAK(Biotinyl(3aR,4R,6aS))-NH2) | – | Yes-(Biotin | at 1 μM | Ki (Pin1 (GST-Pin1); read-out: Ki quoted in figure legend, assay not named): 0.02 µM; pull down of Pin1 from lysate (FIG. 5A) (Pin1; TNBC MDA-MB-231 lysate): able to pull down Pin1; also recorded: pulled down Pin1
3 | C[C@H](NC(=O)[C@H](C)NC(=O)[C@H](CCCNC(N)=O)NC(=O)[C@H](Cc1c[nH]c2ccccc12)NC(=O)[C@@H]1CCCCN1C(=O)[C@@H](CCC(=O)O)NC(=O)CCl)C(=O)N[C@@H](CCCCNC(=O)CCCC[C@H]1SC[C@H]2NC(=O)N[C@H]21)C(N)=O [Compound 2-30, (R)-5-((S)-2-(((2S,5S,8S,11S)-14-Carbamoyl-1-(1H-indol-3-yl)-8,11-dimethyl-3,6,9,12,20-pentaoxo-24-((3aR,4R,6aS)-2-oxohexahydro-1H-thieno[3,4-d]imidazol-4-yl)-5-(3-ureidopropyl)-4,7,10,13,19-pentaazatetracosan-2-yl)carbamoyl)piperidin-1-yl)-4-(2-chloroacetamido)-5-oxopentanoic acid] (ClAc-[dE][Pip]W[Cit]AAK(Biotinyl(3aR,4R,6aS))-NH2) | 1.6 | – | – | pull down of Pin1 from lysate (FIG. 5A) (Pin1; TNBC MDA-MB-231 lysate): unable to pull down Pin1; also recorded: did not
4 | CN(C(=O)CCl)[C@@H](Cc1ccccc1)C(=O)N1CCCC[C@H]1C(=O)N[C@@H](Cc1c[nH]c2ccccc12)C(=O)N[C@@H](CCCNC(N)=O)C(=O)N[C@@H](CCCCNC(=O)CCCC[C@H]1SC[C@H]2NC(=O)N[C@H]21)C(N)=O [Compound 2-32, (S)—N—((S)-1-(((S)-1-(((S)-1-Amino-1-oxo-6-(5-((3aR,4R,6aS)-2-oxohexahydro-1H-thieno[3,4-d]imidazol-4-yl)pentanamido)hexan-2-yl)amino)-1-oxo-5-ureidopentan-2-yl)amino)-3-(1H-indol-3-yl)-1-oxopropan-2-yl)-1-(N-(2-chloroacetyl)-N-methyl-L-phenylalanyl)piperidine-2-carboxamide] (ClAc-[NMeF][Pip]W[Cit]K(Biotinyl(3aR,4R,6aS))-NH2) | – | Yes-(Biotin | at 0.5 μM | Ki (Pin1 (GST-Pin1); [2]): 0.018 µM; Ki (Pin1 (GST-Pin1); [3]): 0.018 µM; pull down of Pin1 from lysate (FIG. 5B) (Pin1; TNBC MDA-MB-231 lysate, 500 nM and 1 μM): able to pull down Pin1; also recorded: pulled down Pin1
5 | C[C@H]1NC(=O)N[C@H]1CCCCCC(=O)NCCCC[C@H](NC(=O)[C@H](CCCNC(N)=O)NC(=O)[C@H](Cc1c[nH]c2ccccc12)NC(=O)[C@@H]1CCCCN1C(=O)[C@H](Cc1ccccc1)N(C)C(=O)CCl)C(N)=O [Compound 2c, (S)—N—((S)-1-(((S)-1-(((S)-1-Amino-6-(6-((4S,5R)-5-methyl-2-oxoimidazolidin-4-yl)hexanamido)-1-oxohexan-2-yl)amino)-1-oxo-5-ureidopentan-2-yl)amino)-3-(1H-indol-3-yl)-1-oxopropan-2-yl)-1-(N-(2-chloroacetyl)-N-methyl-L-phenylalanyl)-piperidine-2-carboxamide] (ClAc-[NMeF][Pip]W[Cit]K(X2)-NH2) | – | Yes-(dtb | at 0.5 μM | Ki (Pin1 (GST-Pin1); [2]): 0.015 µM
6 | CN(C(=O)CCl)[C@@H](Cc1ccccc1)C(=O)N1CCCC[C@H]1C(=O)N[C@@H](Cc1c[nH]c2ccccc12)C(=O)N[C@@H](Cc1ccc(F)cc1)C(=O)N1CCCCC1 [Compound 11-43, (S)-1-(N-(2-Chloroacetyl)-N-methyl-L-phenylalanyl)-N—((S)-1-(((S)-3-(4-fluorophenyl)-1-oxo-1-(piperidin-1-yl)propan-2-yl)amino)-3-(1H-indol-3-yl)-1-oxopropan-2-yl)piperidine-2-carboxamide] (ClAc-[NMeF][Pip]W[Phe(4-F)]-Piperidide) | 0.172 | – | – | –
7 | CN(C(=O)CCl)[C@@H](Cc1ccccc1)C(=O)N1CCCC[C@H]1C(=O)N[C@@H](Cc1c[nH]c2ccccc12)C(=O)N[C@@H](CCc1ccccc1)C(=O)N1CCCCC1 [Compound 11-44, (S)—N—((S)-3-(1H-Indol-3-yl)-1-oxo-1-(((S)-1-oxo-4-phenyl-1-(piperidin-1-yl)butan-2-yl)amino)propan-2-yl)-1-(N-(2-chloroacetyl)-N-methyl-L-phenylalanyl)piperidine-2-carboxamide] (ClAc-[NMeF][Pip]W[hPhe]-Piperidide) | 1.5 | – | – | –
8 | CN(C(=O)CCl)[C@@H](Cc1ccccc1)C(=O)N1CCCC[C@H]1C(=O)N[C@@H](Cc1c[nH]c2ccccc12)C(=O)N1CCCCC1 [Compound 11-45, (S)—N—((S)-3-(1H-indol-3-yl)-1-oxo-1-(piperidin-1-yl)propan-2-yl)-1-(N-(2-chloroacetyl)-N-methyl-L-phenylalanyl)piperidine-2-carboxamide] (ClAc-[NMeF]-[Pip]-Trp-Piperidide) | > 1 | – | – | –
9 | Cc1ccc(CNC(=O)[C@H](CCCNC(N)=O)NC(=O)[C@H](Cc2c[nH]c3ccccc23)NC(=O)[C@@H]2CCCCN2C(=O)[C@H](Cc2ccccc2)NCC#N)cc1 [Compound 12, (S)—N—((S)-3-(1H-indol-3-yl)-1-(((S)-1-((4-methylbenzyl)amino)-1-oxo-5-ureidopentan-2-yl)amino)-1-oxopropan-2-yl)-1-((cyanomethyl)-L-phenylalanyl)piperidine-2-carboxamide] | > 10 | – | – | –
10 | Cc1ccc(CNC(=O)[C@H](CCCNC(N)=O)NC(=O)[C@H](Cc2c[nH]c3ccccc23)NC(=O)[C@@H]2CCCCN2C(=O)[C@H](Cc2ccccc2)NC(=O)C2CO2)cc1 (stereo partly drawn) [Compound 13, (2S)—N—((S)-3-(1H-Indol-3-yl)-1-(((S)-1-((4-methylbenzyl)amino)-1-oxo-5-ureidopentan-2-yl)amino)-1-oxopropan-2-yl)-1-((oxirane-2-carbonyl)-L-phenylalanyl)piperidine-2-carboxamide] (X1-F[Pip]W[Cit]-{NH(4-Me-benzyl)}) | 4.43 | – | – | –
11 | C=CS(=O)(=O)N[C@@H](Cc1ccccc1)C(=O)N1CCCC[C@H]1C(=O)N[C@@H](Cc1c[nH]c2ccccc12)C(=O)N[C@@H](CCCNC(N)=O)C(=O)NCc1ccc(C)cc1 [Compound 14, (S)—N—((S)-3-(1H-indol-3-yl)-1-(((S)-1-((4-methylbenzyl)amino)-1-oxo-5-ureidopentan-2-yl)amino)-1-oxopropan-2-yl)-1-((vinylsulfonyl)-L-phenylalanyl)piperidine-2-carboxamide] (X3-F[Pip]W[Cit]-{NH(4-Me-benzyl)}) | 0.143 | – | – | –
12 | Cc1ccc(CNC(=O)[C@H](CCCNC(N)=O)NC(=O)[C@H](Cc2c[nH]c3ccccc23)NC(=O)[C@@H]2CCCCN2C(=O)[C@H](Cc2ccccc2)NC(=O)CF)cc1 [Compound 15, (S)—N—((S)-3-(1H-Indol-3-yl)-1-(((S)-1-((4-methylbenzyl)amino)-1-oxo-5-ureidopentan-2-yl)amino)-1-oxopropan-2-yl)-1-((2-fluoroacetyl)-L-phenylalanyl)piperidine-2-carboxamide] (Fluoroacetyl-F[Pip]W[Cit]-{NH(4-Me-benzyl)}) | – | – | – | Ki (Pin1 (GST-Pin1); [3]): > 10 µM
